Measurements: ChEMBL document CHEMBL1148852, “Glucosamine sulfate promotes osteoblastic differentiation of MG-63 cells via anti-inflammatory effect” (2007)
The source made the active and inactive calls. The rule behind the calls is not given here.

Experiments:
MG-63 [1] = experiment: Effect on osteocalcin secretion in human MG63 cells after 4 days; assay type: functional, cell-based
RAW [2] = experiment: Inhibition of lipopolysaccharide stimulated TNFalpha synthesis in mouse RAW 264.7 cells; assay type: functional, cell-based
MG-63 [3] = experiment: Effect on alkaline phosphatase activity in human MG63 cells at 100 ug/mL after 24 hrs; assay type: functional, cell-based
MG-63 [4] = experiment: Cytotoxicity against human MG63 cells up to 1000 ug/ml after 48 hrs by MTT assay; assay type: functional, cell-based
MG-63 [5] = experiment: Increase in alkaline phosphatase activity in human MG63 cells at 5 ug/mL after 24 hrs; assay type: functional, cell-based
MG-63 [6] = experiment: Increase in alkaline phosphatase activity in human MG63 cells at 1000 ug/mL after 24 hrs; assay type: functional, cell-based
MG-63 [7] = experiment: Increase of mineralization in human MG63 cells after 7 days; assay type: functional, cell-based
MG-63 [8] = experiment: Increase of collagen synthesis in human MG63 cells after 7 days; assay type: functional, cell-based
RAW [9] = experiment: Reduction of lipopolysaccharide stimulated IL1-beta synthesis in mouse RAW 264.7 cells; assay type: functional, cell-based
RAW [10] = experiment: Reduction of lipopolysaccharide stimulated PGE2 synthesis in mouse RAW 264.7 cells at 10 ug/mL; assay type: functional, cell-based
MG-63 [11] = experiment: Increase of collagen synthesis in human MG63 cells at 10 ug/mL relative to glucosamine; assay type: functional
MG-63 [12] = experiment: Increase in alkaline phosphatase activity in human MG63 cells after 24 hrs; assay type: functional, cell-based

N[C@@H]1[C@@H](O)[C@H](O)[C@@H](CO)O[C@H]1O
Activity (MG-63 [1]): Dose-dependent effect
Activity (RAW [2]): Active
Activity (MG-63 [3]): inactive

N[C@@H]1[C@@H](O)[C@H](O)[C@@H](COS(=O)(=O)O)O[C@H]1O
Activity (MG-63 [4]): Not toxic
Activity (MG-63 [5]): Active
Activity (MG-63 [6]): inactive
Activity (MG-63 [1]): Dose-dependent effect
Activity (MG-63 [7]): Active
Activity (MG-63 [8]): Dose-dependent effect
Activity (RAW [2]): Active
Activity (RAW [9]): Active
Activity (RAW [10]): Active
Fold change (MG-63 [11]): 3
Activity (MG-63 [12]): Dose-dependent effect
